From patent US10738028B2, “Spiro three-membered ring, spiro five-membered ring peptide deformylase inhibitor and use thereof in antibacteria and anti-tumor” (priority 2016, dated 2020)

Experiments:
Format in all cases: cell-based
[1] = tested on: methicillin-resistant Staphylococcus aureus (MRSA); experiment: MIC, two-fold agar dilution (CLSI), clinical isolates
How it was run: (§1)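 Susceptibility was tested using CLSI two-fold agar dilution against the strains examined.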

[2] = tested on: methicillin-sensitive Staphylococcus aureus (MSSA); experiment: as above
How it was run: as §1

[3] = tested on: Escherichia coli (including ESBLs, non-ESBLs); experiment: as above
How it was run: as §1

[4] = tested on: Enterococcus faecalis (EFA); experiment: as above
How it was run: as §1

[5] = tested on: Enterococcus faecium (EFM); experiment: as above
How it was run: as §1

[6] = tested on: methicillin-resistant Staphylococcus epidermidis (MRSE); experiment: as above
How it was run: as §1

[7] = tested on: Streptococcus pneoumoniae (SPN); experiment: as above; settings: strain SPN 16-2
How it was run: as §1

[8] = tested on: Moraxella catarrhalis (BCA); experiment: as above
How it was run: as §1

[9] = tested on: methicillin-sensitive Staphylococcus epidermidis (MSSE); experiment: as above
How it was run: as §1

[10] = tested on: HCT-116 colorectal cancer cell line; experiment: CCK-8 proliferation inhibition; settings: 72 hours, CCK-8
How it was run: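 Growth inhibition is read by CCK-8 (1:10 dilution) after 72 h of compound exposure. HCT-116 cells grow in McCoy's 5A containing 10% newborn bovine serum at 2000 cells/well, with 1‰ DMSO as vehicle control.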

[11] = MIC in vitro anti-bacterial experiments, Gram-positive bacteria; settings: lowest MIC reached; read-out: minimum inhibitory concentration against Gram-positive bacteria
From the text: 1. The invention adopts the two-fold agar dilution method recommended by the operating procedure of antimicrobial susceptibility testing set by American Clinical and Laboratory Standards Institute (CLSI) to determine the Minimum Inhibitory Concentration (MIC) of the test samples against the tested strains.

[12] = tested on: BEL-7402 liver cancer cell line; experiment: CCK-8 proliferation inhibition
How it was run: (§2)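 Plating at 2000 cells/well, then incubation overnight at 37° C. Next, a range of compound concentrations for 72 hours (control 1‰ DMSO). Finally, medium decanted and CCK-8 diluted 1:10 added.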

[13] = tested on: MGC-803 gastric cancer cell line; experiment: CCK-8 proliferation inhibition
How it was run: as §2

[14] = tested on: A549 lung cancer cell line; experiment: CCK-8 proliferation inhibition
How it was run: as §2

[15] = concentration of 30 μM, 72 hours, 30 µM

O=C(C[C@@H](CC1CCCC1)C(=O)N1CC2(CC2)C[C@H]1C(=O)Nc1nc(C(F)(F)F)cs1)NO [Example 73]
Anti-bacterial activity (MIC), strain MRSA 15-1 ([1]; clinical isolate MRSA 15-1): 0.03 µg/mL
Anti-bacterial activity (MIC), strain MRSA 15-2 ([1]; clinical isolate MRSA 15-2): 0.06 µg/mL
Anti-bacterial activity (MIC), strain MRSA 15-3 ([1]; clinical isolate MRSA 15-3): 0.06 µg/mL
Anti-bacterial activity (MIC), strain MRSA 15-4 ([1]; clinical isolate MRSA 15-4): 0.06 µg/mL
Anti-bacterial activity (MIC), strain MSSA 15-3 ([2]; clinical isolate MSSA 15-3): 0.06 µg/mL
Anti-bacterial activity (MIC), strain MSSA 15-4 ([2]; clinical isolate MSSA 15-4): 0.06 µg/mL
Anti-bacterial activity (MIC), strain MSSA 15-5 ([2]; clinical isolate MSSA 15-5): 0.03 µg/mL
Anti-bacterial activity (MIC), strain MSSA 15-6 ([2]; clinical isolate MSSA 15-6): 0.06 µg/mL
Anti-bacterial activity (MIC), strain ECO+ 15-1 ([3]; clinical isolate ECO+ 15-1): 16 µg/mL
Anti-bacterial activity (MIC), strain ECO+ 15-2 ([3]; clinical isolate ECO+ 15-2): 32 µg/mL
Anti-bacterial activity (MIC), strain ECO+ 15-3 ([3]; clinical isolate ECO+ 15-3): 32 µg/mL
Anti-bacterial activity (MIC), strain ECO+ 15-4 ([3]; clinical isolate ECO+ 15-4): 32 µg/mL
Anti-bacterial activity (MIC), strain ECO− 15-1 ([3]; clinical isolate ECO− 15-1): 32 µg/mL
Anti-bacterial activity (MIC), strain ECO− 15-2 ([3]; clinical isolate ECO− 15-2): 32 µg/mL
Anti-bacterial activity (MIC), strain ECO− 15-3 ([3]; clinical isolate ECO− 15-3): 32 µg/mL
Anti-bacterial activity (MIC), strain ECO− 15-4 ([3]; clinical isolate ECO− 15-4): 32 µg/mL
Anti-bacterial activity (MIC) ([4]; strain EFA 15-1): 2 µg/mL
Anti-bacterial activity (MIC) ([4]; strain EFA 15-2): 2 µg/mL
Anti-bacterial activity (MIC) ([4]; strain EFA 15-3): 2 µg/mL
Anti-bacterial activity (MIC) ([4]; strain EFA 15-4): 2 µg/mL
Anti-bacterial activity (MIC) ([4]; strain EFA 15-5): 2 µg/mL
Anti-bacterial activity (MIC) ([4]; strain EFA 15-6): 2 µg/mL
Anti-bacterial activity (MIC) ([4]; strain EFA 15-9): 2 µg/mL
Anti-bacterial activity (MIC) ([5]; strain EFM 15-1): 1 µg/mL
Anti-bacterial activity (MIC) ([5]; strain EFM 15-2): 1 µg/mL
Anti-bacterial activity (MIC) ([5]; strain EFM 15-3): 0.125 µg/mL
Anti-bacterial activity (MIC) ([5]; strain EFM 15-4): 1 µg/mL
Anti-bacterial activity (MIC) ([5]; strain EFM 15-5): 0.125 µg/mL
Anti-bacterial activity (MIC) ([5]; strain EFM 15-6): 1 µg/mL
Anti-bacterial activity (MIC), strain MRSE 15-1 ([6]; clinical isolate MRSE 15-1): < 8 ng/mL
Anti-bacterial activity (MIC), strain MRSE 15-2 ([6]; clinical isolate MRSE 15-2): 0.015 µg/mL
Anti-bacterial activity (MIC), strain MRSE 15-3 ([6]; clinical isolate MRSE 15-3): < 8 ng/mL
Anti-bacterial activity (MIC), strain MRSE 15-7 ([6]; clinical isolate MRSE 15-7): 0.06 µg/mL
Anti-bacterial activity (MIC) [7]: 1 µg/mL
Anti-bacterial activity (MIC) ([8]; strain BCA 14-1): 1 µg/mL
Anti-bacterial activity (MIC) ([8]; strain BCA 14-4): 1 µg/mL
Anti-bacterial activity (MIC) ([8]; strain BCA 14-5): 0.25 µg/mL
Anti-bacterial activity (MIC) ([8]; strain BCA 14-6): 1 µg/mL
Anti-bacterial activity (MIC) ([8]; strain BCA 14-7): 0.125 µg/mL
Anti-bacterial activity (MIC) ([8]; strain BCA 14-8): 0.25 µg/mL
Anti-bacterial activity (MIC) ([8]; strain BCA 14-10): 0.125 µg/mL
Anti-bacterial activity (MIC), strain MSSE 15-3 ([9]; clinical isolate MSSE 15-3): 0.015 µg/mL
Anti-bacterial activity (MIC), strain MSSE 15-4 ([9]; clinical isolate MSSE 15-4): < 8 ng/mL
Anti-bacterial activity (MIC), strain MSSE 15-5 ([9]; clinical isolate MSSE 15-5): < 8 ng/mL
Anti-bacterial activity (MIC), strain MSSE 15-6 ([9]; clinical isolate MSSE 15-6): < 8 ng/mL
IC50 ([10]; Homo sapiens, HCT-116): 6.21 µM
HCT116 inhibition rate/% ([10]; concentration of 30 μM, 30 µM): 78%
MIC [11]: < 8 ng/mL
IC50 ([12]; Homo sapiens, Bel-7402, 72 hours): 10 µM
Inhibition of proliferation, Liver cancer BEL-7402 [12, 15]: 81%
inhibition at 30 µM ([13]; Homo sapiens, MGC-803, 72 h, concentration of 30 μM): > 50%
IC50 ([13]; Homo sapiens, MGC-803, 72 hours): 12.7 µM
Inhibition of proliferation, Gastric cancer MGC-803 [13, 15]: 65%
inhibition at 30 µM ([14]; Homo sapiens, A549, 72 h, concentration of 30 μM): > 50%
IC50 ([14]; Homo sapiens, A549, 72 hours): 5.12 µM
Inhibition of proliferation, Lung cancer A549 [14, 15]: 63%
